According to patent US20250339567A1, “COMPOUNDS WITH IMPROVED PHARMACOKINETICS FOR IMAGING AND THERAPY OF CANCER” (priority 2019, published 2025):
Like-named read-outs stand apart in the source and are kept apart here. Starred links: 1 amine or outer side, 2 acyl side, 3 side chain; linkers in the order of their positions; H or OH if unused. Non-standard residues stand in square brackets, D forms with d. Residues, ends and D or L forms follow the SMILES beside them. *: point of attachment. X4 = O=C(O)CN1CCN(CC(=O)O)CCN(CC(=O)NCc2ccc(NC(=O)COCC(=O)*)cc2)CCN(CC(=O)O)CC1; DOTAGA = O=C(O)CN1CCN(CC(=O)O)CCN(C(CCC(=O)*)C(=O)O)CCN(CC(=O)O)CC1; Benzoyl(4-SiFtBu2) = CC(C)(C)[Si](F)(c1ccc(C(=O)*)cc1)C(C)(C)C; d(γGlu) = O=C(O)[C@@H](CCC(=O)[*:2])N[*:1]; Sta = CC(C)C[C@H](N)[C@@H](O)CC(=O)O; Bta = N[C@@H](Cc1csc2ccccc12)C(=O)O; X1 = O=C(CN1CCC(N[*:1])CC1)[*:2]; NHCH(iBu)2 = CC(C)CC(CC(C)C)N*; dOrn = NCCC[C@@H](N)C(=O)O; hSer = N[C@@H](CCO)C(=O)O; X2 = NCCNCC(CNCCN)C(=O)*; dDap = NC[C@@H](N)C(=O)O; CO = O=C([*:1])[*:2]

Tests used:
GRPR = target: T1, GRPR (Homo sapiens, UniProt P30550); assay: Determination of GRPR affinity (IC50), competition with [D-3-[125I]I-Tyr6]MJ9 on PC-3 cells; format: binding; conditions: for IC50 [nM], ^natLu-labeled (n = 3): Table 6, natLu-labeled
T1 construct: endogenous in cells; host or cells: PC-3 cells
T1 sequence (P30550 whole entry): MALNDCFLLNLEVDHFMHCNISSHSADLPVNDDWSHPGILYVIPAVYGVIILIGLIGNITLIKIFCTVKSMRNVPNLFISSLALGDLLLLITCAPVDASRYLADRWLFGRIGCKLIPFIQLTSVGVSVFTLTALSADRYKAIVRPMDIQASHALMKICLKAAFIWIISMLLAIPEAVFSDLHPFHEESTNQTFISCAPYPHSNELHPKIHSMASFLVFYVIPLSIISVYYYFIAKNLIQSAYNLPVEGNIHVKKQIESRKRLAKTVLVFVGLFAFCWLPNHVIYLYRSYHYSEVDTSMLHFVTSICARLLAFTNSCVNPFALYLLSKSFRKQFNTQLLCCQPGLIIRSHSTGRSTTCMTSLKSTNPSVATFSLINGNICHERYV
Experimental: The reference ligand for IC50 studies ([D-3-[^125I]I-Tyr^6]MJ9) is prepared according to a previously published procedure. Briefly, 0.2 mg of [D-Tyr^6]MJ9 are dissolved in 20 μL Tracepur water and 280 μL TRIS buffer (25 mm TRIS HCl, 0.4 M NaCl, pH=7.9). After addition of the solution to a vial containing 150 μg Iodo-Gen® (1,3,4,6-Tetrachloro-3α,6α-diphenylglycouril, surface-bound), 5.0 μL (16 MBq) [^125I]Nal(74 TBq/mmol, 3.1 GBq/mL, 40 mM NaOH, Hartmann Analytic, Braunschweig, Germany) are added.
The GRPR-positive PC-3 cells are cultured in Dublecco modified Eagle medium/Nutrition Mixture F-12 with Glutamax-I (1:1) (Invitrigon), supplemented with 10% fetal calf serum and maintained at 37° C. in a humidified 5% CO2 atmosphere.
After removal of the culture medium, the cells are washed once with 500 μL of HBSS (Hank's balanced salt solution, Biochrom, Berlin, Germany, with addition of 1% bovine serum albumin (BSA)) and left in 200 μL HBSS (1% BSA) for 9 min at room temperature for equilibration. Next, 25 μL per well of solutions, containing either HBSS (1% BSA) as control or the respective ligand in increasing concentration (10^−10 M-10^−4 M in HBSS), are added with subsequent addition of 25 μL of [D-3-[^125I]I-Tyr^6]MJ9 (2.0 nM) in HBSS (1% BSA).
All experiments are performed in triplicate for each concentration. After 2 h incubation at room temperature, the experiment is terminated by removal of the medium and consecutive rinsing with 300 μL of HBSS. The media of both steps are combined in one fraction and represent the amount of free radiolabeled reference. Afterwards, the cells are lysed with 300 μL of 1 M NaOH for at least 15 min and united with the 300 μL NaOH of the following washing step. Quantification of bound and free radiolabeled reference is accomplished in a γ-counter.
IC50 determination for each ligand was repeated twice.

[1] = Plasma studies: metabolic stability in vitro in human plasma (radio RP-HPLC); format: in vitro ADME; conditions: Table 1C; 177Lu-labeled, 37° C., 72 ± 2 h; in % (unit assumed)
Experimental: Metabolic stability in vitro was determined applying a procedure published by Linder et al. that was slightly modified. Immediately after labeling, human (200 μL) or murine (100 μL) plasma was added and the mixture was incubated at 37° C. for 72±2 h (or 6±0.5 h). Proteins were precipitated by treatment with ice-cold EtOH (150 μL [human], 100 μL [murine]) and ice-cold MeCN (450 μL [human], 300 μL [murine]), followed by centrifugation for 20 min at 13000 rpm. The supernatants were decanted and further analyzed using radio RP-HPLC. […]

[2] = n-Octanol-PBS distribution coefficient, log D7.4; format: physicochemical; conditions: for log D7.4 (n = 6), ^177Lu-labeled: Table 6, 177Lu-labeled Bombesin-SiFA compounds
Experimental: Approximately 1 MBq of the labeled tracer was dissolved in 1 mL of a 1:1 mixture (v/v) of phosphate buffered saline (PBS, pH=7.4) and n-octanol in an Eppendorf tube. After vigorous mixing of the suspension for 3 min at room temperature, the vial was centrifuged at 9000 rpm for 5 min (Biofuge 15, Heraus Sepatech, Osterode, Germany) and 200 μL aliquots of both layers were measured in a γ-counter. The experiment was repeated at least four times.

[3] = [D-3-[125I]I-Tyr6]MJ9 (c = 0.2 nM), 2 h, r.t.

CC(C)CC(CC(C)C)NC(=O)[C@H](Cc1c[nH]cn1)NC(=O)CNC(=O)[C@@H](NC(=O)[C@H](C)NC(=O)[C@H](Cc1c[nH]c2ccccc12)NC(=O)[C@H](CCO)NC(=O)[C@@H](Cc1ccccc1)NC(=O)COCC(=O)Nc1ccc(CNC(=O)CN2CCN(CC(=O)O)CCN(CC(=O)O)CCN(CC(=O)O)CC2)cc1)C(C)C [[Hse^7]NeoBOMB1] (X4-[dF][hSer]WAVGH-{NHCH(iBu)2}; N-terminus and C-terminus assumed)
IC50 (GRPR; read-out: IC50 [nM] ± SD (n = 3), ^177Lu-labeled, Table 1C, GRPR affinity): 8.3 ± 0.7 nM
Amount of intact tracer after incubation in human plasma for 72 ± 2 h (n = 2) [1]: 57.4 ± 2.1

CC(C)C[C@H](NC(=O)C[C@H](O)[C@H](CC(C)C)NC(=O)[C@H](Cc1c[nH]cn1)NC(=O)CNC(=O)[C@@H](NC(=O)[C@H](C)NC(=O)[C@](C)(Cc1c[nH]c2ccccc12)NC(=O)[C@H](CCC(N)=O)NC(=O)[C@@H](Cc1ccccc1)NC(=O)CN1CCC(NC(=O)CCC(C(=O)O)N2CCN(CC(=O)O)CCN(CC(=O)O)CCN(CC(=O)O)CC2)CC1)C(C)C)C(N)=O (single isomer, unassigned) [AMTG2]
log D7.4 ± SD (n = 8) ([2]; 177Lu-labeled ligand, n-octanol/PBS pH 7.4): −2.51 ± 0.11

CC(C)C[C@H](NC(=O)C[C@H](O)[C@H](CC(C)C)NC(=O)[C@H](Cc1c[nH]cn1)NC(=O)CNC(=O)[C@@H](NC(=O)[C@H](C)NC(=O)[C@H](Cc1c[nH]c2ccccc12)NC(=O)[C@H](CCC(N)=O)NC(=O)[C@@H](Cc1ccccc1)NC(=O)CN1CCC(NC(=O)[C@@H](CN)NC(=O)[C@@H](CC(=O)O)NC(=O)[C@@H](CCCN)NC(=O)[C@@H](CNC(=O)CCC(C(=O)O)N2CCN(CC(=O)O)CCN(CC(=O)O)CCN(CC(=O)O)CC2)NC(=O)[C@@H](CNC(=O)c2ccc([Si](F)(C(C)(C)C)C(C)(C)C)cc2)NC(=O)CC[C@@H](NC(=O)N[C@H](CCC(=O)O)C(=O)O)C(=O)O)CC1)C(C)C)C(N)=O (stereo partly drawn) [GT51] ({dE-CO-d(γGlu)}-[dDap](Benzoyl(4-SiFtBu2))[dDap](DOTAGA)[dOrn][dD][dDap][X1][dF]QWAVGH[Sta]L-NH2)
IC50 [nM], ^natLu-labeled (n = 3) (GRPR; [3]): slightly increased
log D7.4 (n = 6), ^177Lu-labeled [2]: −1.96 ± 0.15

CC(C)C[C@H](NC(=O)C[C@H](O)[C@H](CC(C)C)NC(=O)[C@H](Cc1c[nH]cn1)NC(=O)CNC(=O)[C@@H](NC(=O)[C@H](C)NC(=O)[C@H](Cc1c[nH]c2ccccc12)NC(=O)[C@H](CCC(N)=O)NC(=O)[C@@H](Cc1ccccc1)NC(=O)CN1CCC(NC(=O)CN2CCC(NC(=O)CN3CCC(NC(=O)[C@@H](CC(=O)O)NC(=O)[C@@H](CNC(=O)CCC(C(=O)O)N4CCN(CC(=O)O)CCN(CC(=O)O)CCN(CC(=O)O)CC4)NC(=O)[C@@H](CNC(=O)c4ccc([Si](F)(C(C)(C)C)C(C)(C)C)cc4)NC(=O)CC[C@@H](NC(=O)N[C@H](CCC(=O)O)C(=O)O)C(=O)O)CC3)CC2)CC1)C(C)C)C(N)=O (stereo partly drawn) [GT52] ({dE-CO-d(γGlu)}-[dDap](Benzoyl(4-SiFtBu2))[dDap](DOTAGA)[dD][X1][X1][X1][dF]QWAVGH[Sta]L-NH2)
IC50 [nM], ^natLu-labeled (n = 3) (GRPR; [3]): comparable range
log D7.4 (n = 6), ^177Lu-labeled [2]: −2.05 ± 0.08

CC(C)C[C@H](NC(=O)C[C@H](O)[C@H](CC(C)C)NC(=O)[C@H](Cc1c[nH]cn1)NC(=O)CNC(=O)[C@@H](NC(=O)[C@H](C)NC(=O)[C@H](Cc1csc2ccccc12)NC(=O)[C@H](CCC(N)=O)NC(=O)[C@@H](Cc1ccccc1)NC(=O)CN1CCC(NC(=O)[C@H](CC(=O)O)NC(=O)C(CNCCN)CNCCN)CC1)C(C)C)C(N)=O [N4-asp-[Bta^8]MJ9] (X2-D[X1][dF]Q[Bta]AVGH[Sta]L-NH2)
IC50 (GRPR; IC50 [nM] ± SD (n = 3), Table 5, non-labeled N4 ligands, [D-3-[125I]I-Tyr6]MJ9 (c = 0.2 nM), 2 h, r.t.): 3.36 ± 0.42 nM
log D7.4 (n = 6), ^99mTc-labeled ([2]; 99mTc-labeled, n-octanol/PBS pH 7.4): −1.33 ± 0.06
